According to US20140357655A1, “SPIROINDOLINE DERIVATIVES AS GONADOTROPIN- RELEASING HORMONE RECEPTOR ANTAGONISTS” (Bayer Intellectual Property GmbH, priority 2012, published 2014):

biological target: T1, human GnRH receptor (Homo sapiens, UniProt P30968); test: IP-One HTRF assay with buserelin (at EC80) stimulation; assay type: cell-based; settings: CHO cells stably expressing human GnRH receptor, read-out: Potency in IP-One HTRF assay, given as IC50
T1 sequence (P30968 1-328): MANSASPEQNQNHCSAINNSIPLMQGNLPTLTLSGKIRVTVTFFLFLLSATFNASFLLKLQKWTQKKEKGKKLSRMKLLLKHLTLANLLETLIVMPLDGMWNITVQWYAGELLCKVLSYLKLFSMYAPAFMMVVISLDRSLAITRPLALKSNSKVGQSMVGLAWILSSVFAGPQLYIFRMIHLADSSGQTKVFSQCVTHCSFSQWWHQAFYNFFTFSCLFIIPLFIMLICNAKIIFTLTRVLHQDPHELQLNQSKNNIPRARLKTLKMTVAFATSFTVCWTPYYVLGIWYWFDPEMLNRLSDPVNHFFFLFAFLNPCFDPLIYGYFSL
Summary of the method: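 CHO cells stably expressing human GnRH receptor, preincubated 1 h at 37° C with IP1-d2, were exposed to compound and buserelin at EC80 for 1 h at 37° C. After lysis with Tb-anti-IP1 antibody (1 h, 22° C), 665/620 nm HTRF ratio read; 10 concentrations, 20 μM–1 nM, duplicates, 4-parameter IC50.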

Row | SMILES | IC50
1 | O=C(NCc1ccccc1Cl)c1ccc2c(c1)C1(CCS(=O)(=O)CC1)C(C1CC1)N2S(=O)(=O)c1ccc(F)cc1 (stereo not shown) [Example 18, N-(2-chlorobenzyl)-2-cyclopropyl-1-[(4-fluorophenyl)sulfonyl]-1,2,2′,3′,5′,6′-hexahydrospiro[indole-3,4′-thiopyran]-5-carboxamide 1′,1′-dioxide] | 47 nM
2 | CC(C)(NC(=O)c1ccc2c(c1)C1(CCS(=O)(=O)CC1)C(C1CC1)N2S(=O)(=O)c1ccc(F)cc1)c1ccc(F)cc1Cl (stereo not drawn) [Example 19, N-(2-chloro-4-fluoro-α,α-dimethylbenzyl)-2-cyclopropyl-1-[(4-fluorophenyl)sulfonyl]-1,2,2′,3′,5′,6′-hexahydrospiro[indole-3,4′-thiopyran]-5-carboxamide 1′,1′-dioxide] | 4170 nM
3 | CC(C)(NC(=O)c1ccc2c(c1)C1(CCS(=O)(=O)CC1)C(C1CC1)N2S(=O)(=O)c1ccc(F)cc1)c1ccc(F)cc1 (stereo not drawn) [Example 20, 2-cyclopropyl-N-(4-fluoro-α,α-dimethylbenzyl)-1-[(4-fluorophenyl)sulfonyl]-1,2,2′,3′,5′,6′-hexahydrospiro[indole-3,4′-thiopyran]-5-carboxamide 1′,1′-dioxide] | 346 nM
4 | O=C(NC1(c2ccccc2Cl)CC1)c1ccc2c(c1)C1(CCS(=O)(=O)CC1)C(C1CC1)N2S(=O)(=O)c1ccc(F)cc1 (stereo not shown) [Example 21, N-[1-(2-chlorophenyl)cyclopropyl]-2-cyclopropyl-1-[(4-fluorophenyl)sulfonyl]-1,2,2′,3′,5′,6′-hexahydrospiro[indole-3,4′-thiopyran]-5-carboxamide 1′,1′-dioxide] | 3040 nM
5 | O=C(NCc1ccccn1)c1ccc2c(c1)C1(CCS(=O)(=O)CC1)C(C1CC1)N2S(=O)(=O)c1ccc(F)cc1 (stereo not shown) [Example 22, 2-cyclopropyl-1-[(4-fluorophenyl)sulfonyl]-N-(2-pyridylmethyl)-1,2,2′,3′,5′,6′-hexahydrospiro[indole-3,4′-thiopyran]-5-carboxamide 1′,1′-dioxide] | 1480 nM
6 | CS(=O)(=O)c1cccc(NC(=O)c2ccc3c(c2)C2(CCS(=O)(=O)CC2)C(C2CC2)N3S(=O)(=O)c2ccc(F)cc2)c1 (stereo not shown) [Example 23, 2-cyclopropyl-1-[(4-fluorophenyl)sulfonyl]-N-(3-mesylphenyl)-1,2,2′,3′,5′,6′-hexahydrospiro[indole-3,4′-thiopyran]-5-carboxamide 1′,1′-dioxide] | 328 nM
7 | O=C(NCCc1ccccc1Cl)c1ccc2c(c1)C1(CCS(=O)(=O)CC1)C(C1CC1)N2S(=O)(=O)c1ccc(F)cc1 (stereo not shown) [Example 25, N-[2-(2-chlorophenyl)ethyl]-2-cyclopropyl-1-[(4-fluorophenyl)sulfonyl]-1,2,2′,3′,5′,6′-hexahydrospiro[indole-3,4′-thiopyran]-5-carboxamide 1′,1′-dioxide] | 2620 nM
8 | CC1N(S(=O)(=O)c2ccc(F)cc2)c2ccc(C(=O)NCc3ncccc3Cl)cc2C12CCS(=O)(=O)CC2 (stereo not shown) [Example 26, N-[(3-chloropyridin-2-yl)methyl]-1-[(4-fluorophenyl)sulfonyl]-2-methyl-1,2,2′,3′,5′,6′-hexahydrospiro[indole-3,4′-thiopyran]-5-carboxamide 1′,1′-dioxide] | 646 nM
9 | CC1N(S(=O)(=O)c2ccc(F)cc2)c2ccc(C(=O)NC(C)(C)c3ccc(F)cc3Cl)cc2C12CCS(=O)(=O)CC2 (stereo not drawn) [Example 27, N-(2-chloro-4-fluoro-α,α-dimethylbenzyl)-1-[(4-fluorophenyl)sulfonyl]-2-methyl-1,2,2′,3′,5′,6′-hexahydrospiro[indole-3,4′-thiopyran]-5-carboxamide 1′,1′-dioxide] | 9020 nM
10 | CC1N(S(=O)(=O)c2ccc(F)cc2)c2ccc(C(=O)NCc3ncc(F)cc3Cl)cc2C12CCS(=O)(=O)CC2 (stereo not shown) [Example 28, N-[(3-chloro-5-fluoropyridin-2-yl)methyl]-1-[(4-fluorophenyl)sulfonyl]-2-methyl-1,2,2′,3′,5′,6′-hexahydrospiro[indole-3,4′-thiopyran]-5-carboxamide 1′,1′-dioxide] | 405 nM
